# Source: patent publication US20220281848A1, “PYRAZOLE-SUBSTITUTED PYRROLIDINONES AS HERBICIDES” (FMC Corporation, priority 2019, published 2022)
# Tested on: plants
# Assay: Test D pre-emergence, other plants of Tables D1 and D3
# Format: in vivo
# Details: for damage to plant (100=total damage to plant; 0=no damage to plant), SORVU: preemergent, 20 DAA; for damage to plant, ALOMY / damage to plant, AVEFA / damage to plant, BEAVA / damage to plant, BROTE / damage to plant, BRSNN / damage to plant, CHEAL / damage to plant, GALAP / damage to plant, HORVW / damage to plant, KCHSC / damage to plant, LOLPE / damage to plant, POAAN / damage to plant, POLCO / damage to plant, SINAR / damage to plant, STEME / damage to plant, VERPE: pre-emergence, 100=total damage, 0=no damage
# Protocol: A formulation containing 50 g/L of the test chemical was prepared by dissolving the active ingredient in a mixture of organic solvents and emulsifier, details of which are provided in the table. This formulation was then mixed with a small, variable amount of acetone to aid dissolution, before addition of a 0.2% v/v aqueous solution of an adjuvant, as the aqueous diluent, to form an aqueous spray solution which contains a predetermined concentration of the active ingredient.
# This aqueous spray solution was then sprayed onto plants including maize and wheat that had been seed treated with a herbicide safener, after one day's cultivation (for pre-emergence) or after about 12 days' cultivation (for post-emergence). The plants were grown from seeds sown in standard soil, placed in a glasshouse under controlled conditions (at 24/18° C. or 20/16° C., day/night; 16 h light; 65% humidity). After spray application the plants were then grown in a glasshouse under the same conditions and watered twice daily. After 15 d for post-emergence and 20 DAA for pre-emergence the test was evaluated (100=total damage to plant; 0=no damage to plant).
smiles,measurement,setting,value
CCn1nc([C@H]2CN(C)C(=O)[C@@H]2C(=O)Nc2cccc(F)c2F)c2cc(F)ccc21 [Compound 8],"damage to plant (100=total damage to plant; 0=no damage to plant), SORVU",rate 250,20
same,"damage to plant (100=total damage to plant; 0=no damage to plant), SORVU",rate 500,30
same,"damage to plant, ALOMY","rate 15, 20 DAA",0
same,"damage to plant, AVEFA","rate 15, 20 DAA",0
same,"damage to plant, BEAVA","rate 15, 20 DAA",0
same,"damage to plant, BROTE","rate 15, 20 DAA",0
same,"damage to plant, BRSNN","rate 15, 20 DAA",0
same,"damage to plant, CHEAL","rate 15, 20 DAA",0
same,"damage to plant, GALAP","rate 15, 20 DAA",0
same,"damage to plant, HORVW","rate 15, 20 DAA",0
same,"damage to plant, KCHSC","rate 15, 20 DAA",0
same,"damage to plant, LOLPE","rate 15, 20 DAA",0
same,"damage to plant, POAAN","rate 15, 20 DAA",0
same,"damage to plant, POLCO","rate 15, 20 DAA",0
same,"damage to plant, SINAR","rate 15, 20 DAA",0
same,"damage to plant, STEME","rate 15, 20 DAA",0
same,"damage to plant, VERPE","rate 15, 20 DAA",0
same,"damage to plant, ALOMY","rate 30, 20 DAA",0
same,"damage to plant, AVEFA","rate 30, 20 DAA",0
same,"damage to plant, BEAVA","rate 30, 20 DAA",0
same,"damage to plant, BROTE","rate 30, 20 DAA",0
same,"damage to plant, BRSNN","rate 30, 20 DAA",0
same,"damage to plant, CHEAL","rate 30, 20 DAA",0
same,"damage to plant, GALAP","rate 30, 20 DAA",0
same,"damage to plant, HORVW","rate 30, 20 DAA",0
same,"damage to plant, KCHSC","rate 30, 20 DAA",0
same,"damage to plant, LOLPE","rate 30, 20 DAA",0
same,"damage to plant, POAAN","rate 30, 20 DAA",0
same,"damage to plant, POLCO","rate 30, 20 DAA",0
same,"damage to plant, SINAR","rate 30, 20 DAA",0
same,"damage to plant, STEME","rate 30, 20 DAA",0
same,"damage to plant, VERPE","rate 30, 20 DAA",0
same,"damage to plant, ALOMY","rate 60, 20 DAA",0
same,"damage to plant, AVEFA","rate 60, 20 DAA",0
same,"damage to plant, BEAVA","rate 60, 20 DAA",0
same,"damage to plant, BROTE","rate 60, 20 DAA",0
same,"damage to plant, BRSNN","rate 60, 20 DAA",0
same,"damage to plant, CHEAL","rate 60, 20 DAA",0
same,"damage to plant, GALAP","rate 60, 20 DAA",0
same,"damage to plant, HORVW","rate 60, 20 DAA",0
same,"damage to plant, KCHSC","rate 60, 20 DAA",0
same,"damage to plant, LOLPE","rate 60, 20 DAA",0
same,"damage to plant, POAAN","rate 60, 20 DAA",0
same,"damage to plant, POLCO","rate 60, 20 DAA",0
same,"damage to plant, SINAR","rate 60, 20 DAA",0
same,"damage to plant, STEME","rate 60, 20 DAA",0
same,"damage to plant, VERPE","rate 60, 20 DAA",0
same,"damage to plant, ALOMY","rate 130, 20 DAA",0
same,"damage to plant, AVEFA","rate 130, 20 DAA",0
same,"damage to plant, BEAVA","rate 130, 20 DAA",0
same,"damage to plant, BROTE","rate 130, 20 DAA",0
same,"damage to plant, BRSNN","rate 130, 20 DAA",0
same,"damage to plant, CHEAL","rate 130, 20 DAA",0
same,"damage to plant, GALAP","rate 130, 20 DAA",0
same,"damage to plant, HORVW","rate 130, 20 DAA",0
same,"damage to plant, KCHSC","rate 130, 20 DAA",0
same,"damage to plant, LOLPE","rate 130, 20 DAA",0
same,"damage to plant, POAAN","rate 130, 20 DAA",0
same,"damage to plant, POLCO","rate 130, 20 DAA",0
same,"damage to plant, SINAR","rate 130, 20 DAA",0
same,"damage to plant, STEME","rate 130, 20 DAA",0
same,"damage to plant, VERPE","rate 130, 20 DAA",0
same,"damage to plant, ALOMY","rate 250, 20 DAA",0
same,"damage to plant, AVEFA","rate 250, 20 DAA",0
same,"damage to plant, BEAVA","rate 250, 20 DAA",0
same,"damage to plant, BROTE","rate 250, 20 DAA",0
same,"damage to plant, BRSNN","rate 250, 20 DAA",0
same,"damage to plant, CHEAL","rate 250, 20 DAA",0
same,"damage to plant, GALAP","rate 250, 20 DAA",0
same,"damage to plant, HORVW","rate 250, 20 DAA",0
same,"damage to plant, KCHSC","rate 250, 20 DAA",0
same,"damage to plant, LOLPE","rate 250, 20 DAA",0
same,"damage to plant, POAAN","rate 250, 20 DAA",0
same,"damage to plant, POLCO","rate 250, 20 DAA",0
same,"damage to plant, SINAR","rate 250, 20 DAA",0
same,"damage to plant, STEME","rate 250, 20 DAA",0
same,"damage to plant, VERPE","rate 250, 20 DAA",0
same,"damage to plant, ALOMY","rate 500, 20 DAA",10
same,"damage to plant, AVEFA","rate 500, 20 DAA",10
same,"damage to plant, BEAVA","rate 500, 20 DAA",0
same,"damage to plant, BROTE","rate 500, 20 DAA",0
same,"damage to plant, BRSNN","rate 500, 20 DAA",10
same,"damage to plant, CHEAL","rate 500, 20 DAA",0
same,"damage to plant, GALAP","rate 500, 20 DAA",0
same,"damage to plant, HORVW","rate 500, 20 DAA",10
same,"damage to plant, KCHSC","rate 500, 20 DAA",0
same,"damage to plant, LOLPE","rate 500, 20 DAA",0
same,"damage to plant, POAAN","rate 500, 20 DAA",60
same,"damage to plant, POLCO","rate 500, 20 DAA",0
same,"damage to plant, SINAR","rate 500, 20 DAA",0
same,"damage to plant, STEME","rate 500, 20 DAA",0
same,"damage to plant, VERPE","rate 500, 20 DAA",0
